Laboratory results from patent publication US20240207421A1, “NERVE TARGETING PEPTIDES AND METHODS OF USE” (ALUME BIOSCIENCES, INC., priority 2020, published 2024).

Columns and labels:
Human MPZ (human) = Human MPZ (human) (UniProt P25189); assay: phage display, NGS count
Human Myelin PLP = assay: Phage display library screening (Example 2, Python script analysis), binding to Human Myelin PLP; conditions: combined unique sequence count, Python/R script analysis
Procedure: (§1) Phage display library screens were used to identify peptides that bind to target proteins (including specific laminin trimers) that are expressed in human nerves, as described in Table 3. These screens were also carried out to identify peptides that could bind selectively to nerves versus muscle. Such peptides could therefore be useful for systemic in-vivo labeling of nerves during fluorescence assisted surgery. Specifically, m 13 phage libraries expressing 7 or 12 random amino acid peptides, or a cyclic peptide CX7C, on the N-terminus of the minor coat protein pIII (New England Biolabs; NEB) were processed through multiple rounds of selection for binding to target proteins expressed in nerves, or to excised human nerves, nerve extracts, or muscle, as described further below.
(§2) For screening against the specified target proteins in Table 1, including LN211, LN411, LN421, and LN521, the phage library was processed by up to 4 binding and wash cycles. For selection, phage libraries were incubated for up to 24 hours at 4° C. in 96 well plates that had been coated with one of the target proteins. Plates were then washed with PBS and phage were eluted using 0.2M glycine pH 2.0. Phage supernatants where then neutralized with Tris pH 9.0 prior to plating on TGI bacteria and LB agar plates. Colonies were counted to determine titer followed by DNA preparation of pools of phage and NextGen sequencing. After rounds of selection, phage were pooled and amplified for iterative selection. Phage that were bound at each round were sequenced. NextGen sequencing of pools after 2, 3 and 4 rounds of selection was used to isolate candidate sequences that were analyzed further to identify those that specifically bound each unique target protein.
(§3) Python Script Analysis: For all NEB sequence datasets, a python script was used to translate, trim, and filter the peptide sequences. The script translated the nucleotide sequences, translating amber codons as glutamine in peptide sequences, and then trimmed the end sequences that come from the vector. Secondly, the script combined the unique counts of trimmed peptides with identical sequences. […] Another python script was used to group peptides from different assays according to protein target (Myelin Protein Zero, Myelin Proteolipid Protein, Myelin Basic Protein, and Nidogen-2) and also combine the unique sequence counts for each peptide. An R script was written to merge the peptide sequences from different data files and determine peptides specific for each protein target but absent from different protein binding datasets. Peptide sequences were ranked by unique sequence count.

Human MPZ = assay: Phage display library screening (Example 2, Python script analysis), binding to Human MPZ; conditions: combined unique sequence count, Python/R script analysis
Human MPZ, sequence (P25189 30-153 limits assumed): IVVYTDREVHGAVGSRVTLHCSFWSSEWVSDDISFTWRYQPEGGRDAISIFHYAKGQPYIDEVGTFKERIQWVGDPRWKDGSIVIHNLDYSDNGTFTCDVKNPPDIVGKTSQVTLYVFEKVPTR
Procedure: as §1, §2, §3

Laminin 421/521 = assay: Phage display library screening (Example 2), NEB laminin-binding peptides; design: species or system human; conditions: Laminin 421/521, not 211 and 411; combined unique sequence count, Python/R script analysis
Procedure, shortened: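 M13 phage libraries (7- or 12-mer random or cyclic CX7C peptides on pIII) panned up to 4 rounds against plate-coated laminins LN211, LN411, LN421, LN521, 24 h at 4 °C; elution with 0.2M glycine pH 2.0. NextGen sequencing of pools after rounds 2–4; peptides binding 421/521 but not 211/411 identified.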

Human MPZ (human), sequence (P25189 30-153 limits assumed): as above

Substance | Count (Human Myelin PLP) | also measured
SYLPPFI (peptide) |  | Count (Human MPZ (human)): 41
FSTTGRG (peptide) |  | Count (Human MPZ (human)): 39
KPSASIY (Myelin PLP-binding peptide) | 26 | 
NDASTVS (Myelin PLP-binding peptide) | 28 | 
SGVATYT (Myelin PLP-binding peptide) | 31 | 
IIPPTSV (Myelin PLP-binding peptide) | 31 | 
TGISSTP (Myelin PLP-binding peptide) | 27 | 
DRHEGHR (Myelin PLP-binding peptide) | 26 | 
TDVEMVP (Myelin PLP-binding peptide) | 40 | 
IDRVRGL (Myelin PLP-binding peptide) | 29 | 
ARFVPLT (Myelin PLP-binding peptide) | 30 | 
GLWGPSL (Myelin PLP-binding peptide) | 26 | 
SVMWMTP (Myelin PLP-binding peptide) | 29 | 
SVVYQNS (Myelin PLP-binding peptide) | 26 | 
SVLPDKL (Myelin PLP-binding peptide) | 28 | 
VRTSMNH (Myelin PLP-binding peptide) | 28 | 
FSTPTNV (Myelin PLP-binding peptide) | 29 | 
VTGPGTP (Myelin PLP-binding peptide) | 26 | 
LPHRLNP (Myelin PLP-binding peptide) | 27 | 
IHHLESS (Myelin PLP-binding peptide) | 32 | 
TKITPHR (Myelin PLP-binding peptide) | 29 | 
GIPSSKN (Myelin PLP-binding peptide) | 28 | 
WSPHRSF (Myelin PLP-binding peptide) | 31 | 
LNGISAL (Myelin PLP-binding peptide) | 32 | 
SVEKYSK (Myelin PLP-binding peptide) | 33 | 
AQASSAR (Myelin PLP-binding peptide) | 27 | 

Substance | Count (Human Myelin PLP) | also measured
HKAPLGT (Myelin PLP-binding peptide) | 29 | 
SGLHYAL (Myelin PLP-binding peptide) | 32 | 
YTWTPSR (Myelin PLP-binding peptide) | 28 | 
WSRISVD (Myelin PLP-binding peptide) | 26 | 
HLHTRPT (Myelin PLP-binding peptide) | 27 | 
GWSTAIR (Myelin PLP-binding peptide) | 29 | 
LPVKNLL (Myelin PLP-binding peptide) | 26 | 
NVFSATP (Myelin PLP-binding peptide) | 31 | 
VSSQEQA (Myelin PLP-binding peptide) | 34 | 
MPHAPVQ (Myelin PLP-binding peptide) | 37 | 
ALFQERK (Myelin PLP-binding peptide) | 27 | 
KGVIPAT (Myelin PLP-binding peptide) | 27 | 
TRASYPQ (Myelin PLP-binding peptide) | 32 | 
EGHVWSEYTWGT (Human MPZ-binding peptide) |  | Count (Human MPZ): 37; Count (Laminin 421/521): 50
LMQKPSI (Myelin PLP-binding peptide) | 29 | 
VFPERRV (Myelin PLP-binding peptide) | 28 | 
SLNRGGA (Myelin PLP-binding peptide) | 28 | 
TFPERLR (Myelin PLP-binding peptide) | 31 | 
YSSRLTA (Myelin PLP-binding peptide) | 29 | 
SLPSLLP (Myelin PLP-binding peptide) | 26 | 
TLWAQKT (Myelin PLP-binding peptide) | 28 | 
DGSRDLV (Myelin PLP-binding peptide) | 30 | 
QPNMLKP (Myelin PLP-binding peptide) | 33 | 
FRIDKSM (Myelin PLP-binding peptide) | 26 | 
TMPIKAM (Myelin PLP-binding peptide) | 27 | 
LPSHASI (Myelin PLP-binding peptide) | 26 | 

Substance | Count (Human Myelin PLP) | also measured
ASLTLAL (Myelin PLP-binding peptide) | 26 | 
FSLDRDG (Myelin PLP-binding peptide) | 29 | 
GNVFQTS (Myelin PLP-binding peptide) | 31 | 
VPGHISG (Myelin PLP-binding peptide) | 27 | 
EKSTTVA (Myelin PLP-binding peptide) | 30 | 
LHQTYRP (Myelin PLP-binding peptide) | 27 | 
GSAWKKH (Myelin PLP-binding peptide) | 44 | 
YSQAISA (Myelin PLP-binding peptide) | 27 | 
YSDTYKH (Myelin PLP-binding peptide) | 30 | 
AHQSSVT (Myelin PLP-binding peptide) | 42 | 
AVVAMNK (Myelin PLP-binding peptide) | 28 | 
RLQPEPT (Myelin PLP-binding peptide) | 33 | 
WNTADRL (Myelin PLP-binding peptide) | 34 | 
GHLQSLF (Myelin PLP-binding peptide) | 26 | 
IRPTHNG (Myelin PLP-binding peptide) | 27 | 
QRRSVIL (Myelin PLP-binding peptide) | 31 | 
MKIMPMD (Myelin PLP-binding peptide) | 26 | 
QLPRNNL (Myelin PLP-binding peptide) | 28 | 
GPAAVII (Myelin PLP-binding peptide) | 29 | 
SAQSRSF (Myelin PLP-binding peptide) | 26 | 
SWDVLEL (Myelin PLP-binding peptide) | 31 | 
SLPGYRH (Myelin PLP-binding peptide) | 28 | 
VSASWMP (Myelin PLP-binding peptide) | 27 | 
GLWRHTM (Human MPZ-binding peptide) |  | Count (Human MPZ): 40
YSSLTSN (Human MPZ-binding peptide) |  | Count (Human MPZ): 38
CQKWFTFAC (Human MPZ-binding peptide) |  | Count (Human MPZ): 39

Substance | Count (Human Myelin PLP) | also measured
NASVPPK (Human MPZ-binding peptide) |  | Count (Human MPZ): 42
LPLRLHA (Myelin PLP-binding peptide) | 31 | 
VTPNKAR (Myelin PLP-binding peptide) | 26 | 
WHYTPSM (Myelin PLP-binding peptide) | 26 | 
WSPHGYK (Myelin PLP-binding peptide) | 27 | 
SYLPPFI (Human MPZ-binding peptide) |  | Count (Human MPZ): 41
FALPAGL (Human MPZ-binding peptide) |  | Count (Human MPZ): 41
SAHSVVE (Human MPZ-binding peptide) |  | Count (Human MPZ): 38
KQPAMEN |  | Count (Human MPZ): 37
EPSSFTF (Myelin PLP-binding peptide) | 31 | 
VGYRSAS (Myelin PLP-binding peptide) | 28 | 
GPVVSGM (Human MPZ-binding peptide) |  | Count (Human MPZ): 46
GGSKVWG (Human MPZ-binding peptide) |  | Count (Human MPZ): 40
LWAKRDA (Human MPZ-binding peptide) |  | Count (Human MPZ): 38
NIPSSIL (Myelin PLP-binding peptide) | 33 | 
GKSYSQI (Myelin PLP-binding peptide) | 31 | 
TQPRYPS (Myelin PLP-binding peptide) | 28 | 
TLLHYSA (Human MPZ-binding peptide) |  | Count (Human MPZ): 40
WMTNLDP (Human MPZ-binding peptide) |  | Count (Human MPZ): 43
LVNPFPE (Human MPZ-binding peptide) |  | Count (Human MPZ): 39
FMSDVDH (Human MPZ-binding peptide) |  | Count (Human MPZ): 37
CPDAARNSC (Human MPZ-binding peptide) |  | Count (Human MPZ): 43
TTTIADM (Myelin PLP-binding peptide) | 26 | 
SALISTR (Myelin PLP-binding peptide) | 32 | 
SETESYM (Human MPZ-binding peptide) |  | Count (Human MPZ): 41
EVLYPNN (Myelin PLP-binding peptide) | 27 | 
